Reference: patent publication US10793589B2, “Resorcinarene-based amphipathic compound and use thereof” (Industry-University Cooperation Foundation Hanyang …, priority 2016, dated 2020)

Key:
[1] = Critical micelle concentration by fluorescence dye diphenylhexatriene (DPH); assay type: physicochemical; settings: DPH fluorescence
Protocol: A method of measuring the CMC is not particularly limited and may be any method generally known in the art. For example, the CMC may be measured according to a fluorescence staining method using diphenylhexatriene (DPH).
(§1) Specifically, critical micelle concentrations (CMCs) were measured using a fluorescence dye, diphenylhexatriene (DPH), and hydrodynamic radii (Rh) of micelles formed of each compound (1.0 wt %) were measured by a dynamic light scattering (DLS) experiment. Measured results are shown in Table 1 in comparison with values of DDM as an existing amphipathic molecule (detergent).

[2] = Hydrodynamic radius and size distribution of micelles by dynamic light scattering (DLS); assay type: physicochemical; settings: compound 1.0 wt %
Protocol: A method of measuring the radius of a micelle is not particularly limited and may be any method generally known in the art. For example, the radius may be measured by a dynamic light scattering (DLS) experiment.
as §1
Meanwhile, size distributions of the micelles formed by RGAs and RMAs were measured using DLS.

[3] = test system: leucine transporter (LeuT); experiment: LeuT structural stability, [3H]-Leu binding by scintillation proximity assay (SPA); assay type: biochemical, Aquifex aeolicus
Protocol: (§2) FIGS. 7A and 7B are a set of graphs illustrating a result of measuring the structural stability of a leucine transporter (LeuT) solubilized in RGAs or DDM evaluated at CMC+0.04 wt % (a) or CMC+0.2 wt % (b). Protein stability was determined by measuring the ability of the transporter to bind a radiolabeled ligand ([3H]-Leu) via scintillation proximity assay (SPA). The substrate binding ability of LeuT was measured at regular intervals during 10 days of incubation of the protein at room temperature in the presence of individual amphipathic compounds.
as §2, with “8A” for “7A”, “8B” for “7B”, “RMAs” for “RGAs”
An experiment was carried out to measure the structural stability of a leucine transporter (LeuT) caused by RGAs and RMAs. The concentrations of individual amphipathic compounds were (a) CMC+0.04 wt % or (b) CMC+0.2 wt %, and the substrate binding characteristic of LeuT was measured by scintillation proximity assay (SPA) using [^3H]-Leu. […]
Specifically, wild type LeuT derived from Aquifex aeolicus which is a thermophilic bacterium was purified according to the method described in the paper (Nature 1998, 392, 353-358) written by G. Deckert et al. LeuT was expressed in E. coli C41 (DE3) transformed with pET16b encoding a C-terminal 8×His-tagged transporter (an expression plasmid was provided by Dr. E. Gouaux (Vollum Institute, Portland, Oreg., USA)). […] The protein samples were stored at room temperature for 10 days and centrifuged at designated time points, and protein characteristics were determined by measuring the binding capacity of [^3H]-Leucine using SPA. […]

[4] = target: T1, human β2 adrenergic receptor (β2AR) (Homo sapiens, UniProt P07550); experiment: β2AR stability, [3H]-dihydroalprenolol (DHA) ligand binding assay; assay type: biochemical; settings: for maintaining the ligand binding characteristic of the receptor compared to DDM: 0 hour, CMC+0.2 wt %, [3H]-DHA
T1 construct: made in house
Protocol: (§3) FIGS. 10A and 10B illustrate a result of measuring the effect of RGAs on the stability of β2AR after (a) 0 hour and (b) over time. Protein-ligand binding characteristics were measured via ligand binding assay using [^3H]-dihydroalprenolol (DHA), and the measurement was carried out by sampling a protein sample at regular intervals during 2 days of storage at room temperature.
as §3, with “12A” for “10A”, “12B” for “10B”, “RMAs” for “RGAs”
An experiment was carried out to measure the structural stability of a human (32 adrenergic receptor (β2AR) and a G protein-coupled receptor (GPCR) caused by RGAs and RMAs. That is, a receptor purified with DDM was diluted with a buffer solution containing only each RGA and RMA without cholesteryl hemisuccinate (CHS) or a buffer solution containing CHS and DDM. The final concentration of the compound was CMC+0.2 wt %, and the ligand binding characteristic of the receptor was measured using [^3H]-dihydroalprenolol ([^3H]-DHA) binding.
Specifically, radioligand binding assay was carried out using the following method. β2AR was purified using 0.1% DDM according to the method described in a paper (Science, 2007, 318, 1266-1273.) written by D. M. Rosenbaum et al. and finally concentrated to about 10 mg/ml (about 200 μM). The β2AR purified with DDM was used to prepare a master binding mixture containing 10 nM [^3H]-dihydroalprenolol (DHA) supplemented with 0.5 mg/ml BSA in a 0.2% amphipathic compound (DDM, RGAs or RMAs). The receptor purified with DDM, RGAs or RMAs was incubated with 10 nM [^3H]-DHA at room temperature for 30 minutes. The mixture was loaded into a G-50 column, the flow-through was collected with 1 ml of a binding buffer (20 mM HEPES pH 7.5, 100 mM NaCl, supplemented with 0.5 mg/ml BSA and 20×CMC individual amphipathic compound, and the G-50 column was further filled with 15 ml of a scintillation fluid. Receptor-bound [^3H]-DHA was measured with a scintillation counter (Beckman). The binding capacity of [^3H]-DHA was measured and shown in a column graph. Each experiment was performed in triplicate.

T1 sequence (P07550 whole entry): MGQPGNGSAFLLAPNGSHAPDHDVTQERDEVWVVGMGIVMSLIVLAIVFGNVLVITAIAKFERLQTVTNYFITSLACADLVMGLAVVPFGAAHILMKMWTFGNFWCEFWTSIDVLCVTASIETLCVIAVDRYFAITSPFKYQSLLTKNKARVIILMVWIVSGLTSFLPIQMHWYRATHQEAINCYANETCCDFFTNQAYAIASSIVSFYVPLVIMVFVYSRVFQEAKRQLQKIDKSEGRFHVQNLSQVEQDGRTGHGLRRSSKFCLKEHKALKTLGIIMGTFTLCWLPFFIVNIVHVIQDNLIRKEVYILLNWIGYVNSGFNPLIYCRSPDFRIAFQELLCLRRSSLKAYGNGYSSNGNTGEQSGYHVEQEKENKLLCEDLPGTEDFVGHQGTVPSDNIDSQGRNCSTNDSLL

CMC [1] [µM] | CMC (wt %) [1] [wt %] | Rh (nm), hydrodynamic radius of micelles [2] [nm] | maintaining the ligand binding characteristic of the receptor compared to DDM [4] | Structure (SMILES) | LeuT stabilization as concentration of compound increased ([3]; CMC+0.04 wt % versus CMC+0.2 wt %) | effect of maintaining the substrate binding characteristic of LeuT ([3]; CMC+0.2 wt %, 10 days at room temperature) | ability to maintain the ligand binding of the receptor over time compared to DDM ([4]; 2 days at room temperature, early stage (0 to 12 h))
~10 | ~0.025 | 2.8 ± 0.1 | inferior to DDM | CCCCCCC[C@H]1c2cc(c(OCCO[C@@H]3OC(CO)[C@@H](O)[C@H](O)C3O)cc2OCCO[C@@H]2OC(CO)[C@@H](O)[C@H](O)C2O)[C@H](CCCCCCC)c2cc(c(OCCO[C@@H]3OC(CO)[C@@H](O)[C@H](O)C3O)cc2OCCO[C@@H]2OC(CO)[C@@H](O)[C@H](O)C2O)[C@@H](CCCCCCC)c2cc(c(OCCO[C@@H]3OC(CO)[C@@H](O)[C@H](O)C3O)cc2OCCO[C@@H]2OC(CO)[C@@H](O)[C@H](O)C2O)[C@@H](CCCCCCC)c2cc1c(OCCO[C@@H]1OC(CO)[C@@H](O)[C@H](O)C1O)cc2OCCO[C@@H]1OC(CO)[C@@H](O)[C@H](O)C1O (some centres unmarked) [RGA-C8] | enhanced effect as concentration increased | highest effect of maintaining the substrate binding characteristic of LeuT | –
~2.5 | ~0.0069 | 3.0 ± 0.2 | superior to DDM | CCCCCCCCCCC[C@H]1c2cc(c(OCCO[C@@H]3OC(CO)[C@@H](O)[C@H](O)C3O)cc2OCCO[C@@H]2OC(CO)[C@@H](O)[C@H](O)C2O)[C@H](CCCCCCCCCCC)c2cc(c(OCCO[C@@H]3OC(CO)[C@@H](O)[C@H](O)C3O)cc2OCCO[C@@H]2OC(CO)[C@@H](O)[C@H](O)C2O)[C@@H](CCCCCCCCCCC)c2cc(c(OCCO[C@@H]3OC(CO)[C@@H](O)[C@H](O)C3O)cc2OCCO[C@@H]2OC(CO)[C@@H](O)[C@H](O)C2O)[C@@H](CCCCCCCCCCC)c2cc1c(OCCO[C@@H]1OC(CO)[C@@H](O)[C@H](O)C1O)cc2OCCO[C@@H]1OC(CO)[C@@H](O)[C@H](O)C1O (some centres unmarked) [RGA-C12] | – | – | inferior ability to maintain the ligand binding of the receptor compared to DDM
~5 | ~0.013 | 3.5 ± 0.2 | – | CCCCCCCCC[C@H]1c2cc(c(OCCO[C@@H]3OC(CO)[C@@H](O)[C@H](O)C3O)cc2OCCO[C@@H]2OC(CO)[C@@H](O)[C@H](O)C2O)[C@H](CCCCCCCCC)c2cc(c(OCCO[C@@H]3OC(CO)[C@@H](O)[C@H](O)C3O)cc2OCCO[C@@H]2OC(CO)[C@@H](O)[C@H](O)C2O)[C@@H](CCCCCCCCC)c2cc(c(OCCO[C@@H]3OC(CO)[C@@H](O)[C@H](O)C3O)cc2OCCO[C@@H]2OC(CO)[C@@H](O)[C@H](O)C2O)[C@@H](CCCCCCCCC)c2cc1c(OCCO[C@@H]1OC(CO)[C@@H](O)[C@H](O)C1O)cc2OCCO[C@@H]1OC(CO)[C@@H](O)[C@H](O)C1O (some centres unmarked) [RGA-C10] | – | – | –
